Like-named read-outs stand apart in the source and are kept apart here.
How the values were obtained:
VHL (VBC complex) [1] = target: T1, VHL (VBC complex) (Homo sapiens, UniProt P40337); test: 19F CPMG NMR transverse relaxation rate (R2) and R2 contrast (C2) of spy molecule with and without protein; type: binding; conditions: for R2 contrast – C2: supplement 8.1
T1 construct: equimolar complex of pVHL54-213, eloB1-104 and; made in house; host or cells: E. coli
Excerpt: Due to the large CSA of fluorine and the significant differences in the fluorine isotropic chemical shift (δF) between the free and bound states, the transverse relaxation rate (R2) is a well-established sensitive parameter to detect ligand binding.[4] Therefore, fluorine NMR experiments including a Carr–Purcell–Meiboom–Gill (CPMG) spin-echo filter[10] before acquisition were employed to monitor ligand binding to VHL by measuring peak intensity, as changes in other NMR parameters, such as chemical shift and peak width, were not as significant. The R2 values of the CF3 peak of each compound in the absence and in the presence of protein were determined by performing multiple ^19F CPMG experiments varying the CPMG filter (Fig. 2a). To quantify the shift in R2 upon binding, the R2 contrast (C2)[11] was determined. Ideally, a good spy molecule should have a large increase in R2 (fast relaxation) when protein is present, resulting in a large assay window for the competition experiments (Fig. 2b).
5. Measurement of the transverse relaxation rates by 19F CPMG NMR
All the NMR experiments were performed in a 500 MHz Bruker AVANCE N MR spectrometer equipped with a CPQCI -F cryoprobe. To measure the transverse relaxation rates (R 2), a solution of each spy molecule at 100 μM was prepared in 50 mM potassium phosphate monobasic (KH2PO4), pH 7.5, 100 mM NaCl, 1 mM TCEP, 2% (v/v) DMSO, 20% D2O and 10 µM trifluoroacetic acid (TFA). For each solution, 19F CPMG experiments […]
Due to the fast relaxation of molecules 21 and 22, these experiments were repeated with shorter CPMG filters (50, 100, 150, 200, 300, 400, 700 and 1000 ms). The fluorine peaks were integrated and plotted against the resp ective CPMG filters. The R 2 relaxation rates were obtained from fitting the data as a n exponential decay (GraphPad Prism 6) according to the equation below: [7]
Where I(t) is the 19F signal intensity or integral, t is the total CPMG filter in seconds, I(0) is the signal intensity when t = 0. To obtain the R2 upon addition of prot ein, all the experiments above were repeated in presence of VBC at 1 µM. Experiments were performed as triplicates and the R 2 contrasts (C2) were obtained according to the equation below: [8]
Where R2Free is the R2 obtained for the spy molecule free in solution and R2Observed is the R2 obtained with the spy molecule in presence of VBC. The raw data, fitting, R2 and C2 values for each spy molecule can be found in section 8.1. For the R2 measurements using molecule 19 at varied concentrations of spy molecule and protein, see section 8.2 . For the R2 measurements using spy molecules 6 and 11 (used to generate figures S 2, S3 and S4) see

[2] = target: T2, VHL (VBC complex: pVHL54-213, eloB1-104, eloC17-112) (Homo sapiens, UniProt P40337); test: Surface plasmon resonance (SPR) steady-state binding to immobilised biotinylated AviVBC; design: key to K D, SPR (footnote symbol instead of value): ^c: High responses in the SPR experiments, promiscuous or unspecific binders
T2 construct: equimolar complex of pVHL54-213, eloB1-104 and; made in house; host or cells: E. coli
Description: The KD of each compound to VHL was determined by surface plasmon resonance (SPR) experiments.
3. Protein expression, purification and biotinylation
The VHL E3 ligase is a multi-protein complex composed of five proteins: VHL protein (pVHL), elongin B (eloB), elongin C (eloC), Cullin-2 (Cul2) and Ring-box protein 1 (Rbx1).[3] Since the compounds developed in this work bind solely to the VHL protein, the VBC complex (equimolar complex of pVHL54-213, eloB1-104 and eloC17-112) was used in all experiments, as it can be readily expressed in E. coli with high yields,[4] while the full E3 ligase would require baculovirus-insect cells expression system.[5] The expression and purification of VBC was performed as described previously by our group[2] and employed directly in all NMR experiments.
For the surface plasmon resonance (SPR) experiments, a VBC complex containing an AviTagTM in the N-terminus of eloB (AviVBC) was purified using the same procedure described for VBC. The modified eloB/eloC expression plasmid was previously developed in-house by Dr. Michael Roy and kindly shared. The AviVBC complex was site-specifically biotinylated in the AviTag using the GST-BirA method previously described by […]
4. Surface plasmon resonance experiments
The SPR experiments were performed with a Biacore T200 instrument (GE Healthcare). All measurements were performed at 20 °C with buffer containing 10 mM HEPES, pH 7.5, 150 mM NaCl, 1 mM TCEP, 0.005% (v/v) Tween® 20 and 2% (v/v) dimethyl sulfoxide (DMSO). Biotinylated AviVBC (~0.5 μM) was immobilised at 22 °C onto a Series S sensor chip SA (GE Heathcare) to levels of approximately 3500-4000 response units […]
Solutions of each spy molecule were prepared in buffer at concentrations based on previous structure-activity relationship studies of VHL ligands (K D expected in the nanomolar range for structures like spy molecules 16 and 22, or in the milimolar range for spy molecules similar to 1 and 9). From this first screen, the binding affinities were roughly estimated using the Biacore T200 evaluation software (GE Healthcare), then measurements were repeated using concentrations above and below the KD obtained in the first round to generate better curves for fitting the data accurately. Contact and dissociation times varied across the different compounds tested, but in […]
dissociated from the surface in less than sixty seconds.
Data analysis was performed using the steady state responses of the double-referenced sensorgrams (raw data subtracted from blank and reference surface injections) obtained for each concentration tested. These responses were plotted against the respective concentrations and the data fitted to a 1: 1 binding model u sing the Biacore T200 evaluation software and the following equation: […]
Where Req is the steady-state response at a given concentration C. Deviations in Req were corrected by adding an ‘offset’ term to the equation. KD is the dissociation constant to be determined and RMAX is the maximum response expected for a given compound according to the equation below:
Where n is the stoichiometry of the interaction ( in this case, n = 1) and RProtein is the immobilization level of protein. MWCompound and MWProtein are the molecular weights of compound and protein, respectively. Sensorgrams and fitting parameters for all spy molecules can be found in section 7.

VHL (VBC complex) [3] = target: T1, VHL (VBC complex); test: 19F CPMG NMR transverse relaxation rate (R2) and R2 contrast (C2) of spy molecule with and without protein; type: binding
[4] = Spy molecule 100 μM, no protein
[5] = SPR, 20 °C, steady-state 1:1 fit, footnote b values fitted because RMAX was not reached experimentally, read-out: K D, SPR
[6] = SPR, responses too low, data could not be fitted, read-out: KD
[7] = SPR steady-state fit, supplement section 7, read-out: KD (Biacore T200 fit)
[8] = SPR fit with very large error or RMAX above theoretical, unspecific / promiscuous binding suspected, read-out: KD (Biacore T200 fit, judged unreliable)

T2 sequence (P40337 54-213): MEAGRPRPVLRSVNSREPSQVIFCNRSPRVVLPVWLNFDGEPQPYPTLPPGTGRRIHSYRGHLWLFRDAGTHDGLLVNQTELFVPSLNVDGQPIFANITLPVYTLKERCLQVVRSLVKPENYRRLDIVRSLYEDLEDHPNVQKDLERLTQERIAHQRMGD
T2 sequence (Q15370 1-104 partner limits assumed): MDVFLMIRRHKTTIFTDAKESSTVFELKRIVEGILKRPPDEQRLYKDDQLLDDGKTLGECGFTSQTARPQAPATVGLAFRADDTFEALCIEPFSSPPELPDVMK
T2 sequence (Q15369 17-112 partner limits assumed): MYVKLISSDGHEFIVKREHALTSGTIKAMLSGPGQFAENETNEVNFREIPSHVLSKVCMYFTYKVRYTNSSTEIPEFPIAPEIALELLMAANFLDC
T1 sequence (P40337 54-213): as the sequence (P40337 54-213) above
T1 sequence (Q15370 1-104 partner limits assumed): as the sequence (Q15370 1-104 partner limits assumed) above
T1 sequence (Q15369 17-112 partner limits assumed): as the sequence (Q15369 17-112 partner limits assumed) above

| SMILES | R2 (VHL (VBC complex) [1]; Spy molecule 100 μM + VBC 1 μM) [s⁻¹] | R2 contrast – C2 (VHL (VBC complex) [1]; Spy molecule 100 μM + VBC 1 μM) [%] | R2 (VHL (VBC complex) [1]; [4]) [s⁻¹] | Kd [2, 5] [µM] | Kd [2, 6] [µM] | Kd [2, 7] [µM] | R2 (VHL (VBC complex) [3]; section 8.3: spy molecules at 50 μM in absence of VBC (sub-head prints Spy molecule 100 μM)) [s⁻¹] | R2 (VHL (VBC complex) [3]; section 8.3: spy molecules at 50 μM in presence of VBC 1 μM (sub-head prints 100 μM)) [s⁻¹] | R2 contrast – C2 (VHL (VBC complex) [3]; section 8.3: spy molecules at 50 μM, VBC 1 μM) [%] | K D, SPR (footnote symbol instead of value) ([2]; SPR) | Kd [2, 8] [µM] | SPR binding behaviour ([2]; SPR, supplement section 7) | binding kinetics / dissociation rates by SPR ([2]; SPR) |
| --- | --- | --- | --- | --- | --- | --- | --- | --- | --- | --- | --- | --- | --- |
| O=C(NCc1ccc(Br)c(C(F)(F)F)c1)[C@@H]1C[C@@H](O)CN1 [Compound 1] | 1.115 ± 0.020 | 4.1 ± 3.1 | 1.069 ± 0.028 | > 1500 | > 1000 | – | – | – | – | – | – | – | – |
| CC(=O)N1C[C@H](O)C[C@H]1C(=O)NCc1ccc(Br)c(C(F)(F)F)c1 [Compound 2] | 1.251 ± 0.021 | 6.5 ± 2.2 | 1.170 ± 0.019 | 657 ± 49 | – | 657 | – | – | – | – | – | – | – |
| CC(=O)NC(C(=O)N1CC(O)CC1C(=O)NCc1ccc(Br)c(C(F)(F)F)c1)C(C)(C)C (stereo not shown) [Compound 4] | 1.924 ± 0.037 | 38.9 ± 2.5 | 1.175 ± 0.027 | 4.39 ± 0.12 | – | 4.39 | – | – | – | – | – | – | – |
| Cc1ncsc1-c1ccc(CNC(=O)[C@@H]2C[C@@H](O)CN2)cc1C(F)(F)F [Compound 5] | 0.936 ± 0.011 | 2.2 ± 1.8 | 0.915 ± 0.012 | > 1500 | > 1000 | – | – | – | – | – | – | – | – |
| CC(=O)N1C[C@H](O)C[C@H]1C(=O)NCc1ccc(-c2scnc2C)c(C(F)(F)F)c1 [Compound 6] | 1.760 ± 0.039 | 37.7 ± 2.6 | 1.096 ± 0.020 | 878 ± 98 | – | 878 | 1.255 ± 0.043 | 1.951 ± 0.062 | 35.7 ± 4.0 | – | – | – | – |
| Cc1ncsc1-c1ccc(CNC(=O)[C@@H]2C[C@@H](O)CN2C(=O)CC(C)(C)C)cc1C(F)(F)F [Compound 7] | 3.614 ± 0.088 | 62.1 ± 3.0 | 1.368 ± 0.033 | 67.1 ± 14 | – | 67.1 | – | – | – | – | – | – | – |
| CC(=O)NC(C(=O)N1CC(O)CC1C(=O)NCc1ccc(-c2scnc2C)c(C(F)(F)F)c1)C(C)(C)C (stereo not shown) [Compound 8] | 1.639 ± 0.022 | 17.7 ± 2.2 | 1.349 ± 0.027 | 2.99 ± 0.75 | – | 2.99 | – | – | – | – | – | – | – |
| O=C(NCc1ccc(Br)cc1C(F)(F)F)[C@@H]1C[C@@H](O)CN1 [Compound 9] | 1.279 ± 0.022 | 0.9 ± 2.7 | 1.268 ± 0.026 | > 1500 | > 1000 | – | – | – | – | – | – | – | – |
| Cc1ncsc1-c1ccc(CNC(=O)[C@@H]2C[C@@H](O)CN2)c(C(F)(F)F)c1 [Compound 13] | 1.609 ± 0.017 | 3.2 ± 2.0 | 1.558 ± 0.028 | – | – | – | – | – | – | ^c | 2530 | unspecific / promiscuous binding to the protein surface | – |
| CC(=O)N1C[C@H](O)C[C@H]1C(=O)NCc1ccc(-c2scnc2C)cc1C(F)(F)F [Compound 14] | 3.425 ± 0.073 | 53.9 ± 2.5 | 1.579 ± 0.022 | – | – | – | – | – | – | ^c | 223 | bind unspecifically / promiscuously to the protein surface | – |
| Cc1ncsc1-c1ccc(CNC(=O)[C@@H]2C[C@@H](O)CN2C(=O)CC(C)(C)C)c(C(F)(F)F)c1 [Compound 15] | 2.634 ± 0.058 | 41.3 ± 2.7 | 1.545 ± 0.035 | 35.2 ± 7 | – | 35.2 | – | – | – | – | – | – | – |
| CC(=O)NC(C(=O)N1CC(O)CC1C(=O)NCc1ccc(-c2scnc2C)cc1C(F)(F)F)C(C)(C)C (stereo not shown) [Compound 16] | 1.828 ± 0.031 | 1.3 ± 2.4 | 1.805 ± 0.032 | 0.268 ± 0.03 | – | 0.268 | – | – | – | – | – | – | too high to be determined accurately |
| O=C(NCc1ccc(Br)cc1)C1CC(O)CN1C(=O)C(F)(F)F (stereo not shown) [Compound 17] | 3.189 ± 0.066 | 62.0 ± 2.6 | 1.213 ± 0.028 | 645 ± 100 | – | – | – | – | – | – | – | – | – |
| CC(C)(C)C(NC(=O)C(F)(F)F)C(=O)N1CC(O)CC1C(=O)NCc1ccc(Br)cc1 (stereo not shown) [Compound 21] | 4.109 ± 0.247 | 3.7 ± 8.8 | 3.959 ± 0.262 | 0.447 ± 0.085 | – | 0.447 | – | – | – | – | – | – | too high to be determined accurately |
